Patent US20180169045A1, “AMINO ACID COMPOSITIONS AND METHODS FOR THE TREATMENT OF LIVER DISEASES” (AXCELLA HEALTH INC., priority 2016, published 2018)

Experiments:
Assay type in all cases: cell-based
[1] = system: Primary human hepatic stellate cells; experiment: TNFα-induced MCP-1 secretion in primary human hepatic stellate cells (ELISA); conditions: for MCP-1 chemokine secretion, in words: primary human hepatic stellate cells from two donors, 3 ng/mL TNFα, 12 h
Protocol: (§1) Primary human hepatic stellate cells were obtained from Samsara Sciences based on the following criteria for selecting donors: adult age (between 18 and 50 years), normal BMI (>18.5 and <25), and absence of confounding liver disease. Primary human hepatic stellate cells grown in Complete HSC Medium to ˜80% confluence in T75 or T150 flasks below passage 10 were seeded into sterile, collagen I coated, 96-well optical plastic microplates (ThermoScientific, 152036) at 4000 cells per well (˜1250 cells per cm^2) and incubated for 6 hours at 37° C., 5% CO2 in a humidified incubator.
After 6 hours, plates were removed from the incubator and the medium gently pipetted off and washed once with 150 μL per well DPBS. The DPBS was removed and the pretreatment medium (±single amino acid dropout, 1×HMDB DMEM+3% dialyzed FBS+0.2% Primocin, ±supplemental amino acid dose; see experiment for medium composition) was applied to the cells at 150 μL per well. Plates were returned to the incubator overnight, ˜14-15 hours.
(§2) After overnight pretreatment, the medium was removed from the cells, and the same pretreatment medium, now supplemented with 3 ng/mL TNFα is applied. Each plate contained 3 ng/mL TNFα in 1× human plasma amino acid (HMDB or PAA) concentration medium, 0 ng/mL in 1×HMDB, and 3 ng/mL TNFα+50 nM Bengamide in 1×HMDB to serve as controls. Plates were incubated for 12 hours at 37° C., 5% CO2.
After 12 hour stimulus with TNFα, supernatant was removed and frozen at −80° C. in two separate aliquots. Plates were washed gently once with DPBS and 100 μL per well of 1×HMDB DMEM+3% dialyzed FBS+0.2% Primocin+10% CCK-8 viability reagent (Dojindo). Plates were incubated for 1 hour at 37° C., 5% CO2.
After 1 hour of incubation, viability was measured on the Synergy plate reader (Absorbance at 977 (test), 900 (reference), and 450 (CCK8) nm). Immediately, the medium was removed and the plates were fixed with 70 μL per well 4% paraformaldehyde in PBS at room temperature for 20 minutes, followed by two 150 μL PBS washes, and stored with 100 μL per well PBS at 4° C. until immunofluorescence staining.
Human CCL2/MCP1 and Human IL-6 were measured by ELISA (Human […] DuoSet ELISA, R&D Systems; Human IL-6 DuoSet ELISA, R&D Systems) at 1/5 and 1/20 dilution in 1× Reagent Diluent (Reagent Ancillary Kit 2, R&D Systems). Data were normalized to the specific per well cell density determined by Hoechst stained nuclei count.

[2] = system: Primary human hepatic stellate cells; experiment: TGFβ1-induced procollagen Iα1 secretion in primary human hepatic stellate cells (ELISA); conditions: for procollagen Iα1 secretion, in words: primary human hepatic stellate cells from three donors, 3 ng/mL TGFβ1, 24 h
Protocol: as §1, with “disease. Cells” for “disease. Primary human hepatic stellate cells”, “at 6000” for “at 4000”, “[…])” for “per cm^2)”, “incubated overnight” for “incubated for 6 hours”, “humidified incubator in DMEM with 2% Fetal Bovine Serum and 1% Antibiotic-Antimycotic.” for “humidified incubator.”
After the overnight incubation, plates were removed from the incubator and the medium was gently pipetted off and washed twice with 150 μL per well DPBS. The DPBS was removed and the pretreatment medium (±single amino acid dropout, 1×HMDB DMEM+1% Antibiotic-Antimycotic, 10 mM HEPES, ±supplemental amino acid dose; see experiment for medium composition) was applied to the cells at 150 μL per well. Plates were returned to the incubator for 10.5 hours.
as §2, with “10.5 hour” for “overnight”, “TGFβ1, was” for “TNFα is”, “TGFβ1” for “TNFα”, “TGFβ1+20 μM Silybin” for “TNFα+50 nM Bengamide”, “were then” for “were”, “24” for “12”
After 24 hour stimulus, supernatant was removed and frozen at −80° C. in two separate aliquots. The cells were then washed with 125 μL per well Buffer FCW (FastLane Cell Multiplex NR Kit, Qiagen, 216713). The wash buffer was immediately removed and 50 μL of Cell Processing Mix (containing genomic DNA Wipeout buffer) was applied to lyse cells, incubating for 10 minutes at room temperature. RNA lysate was then transferred to 96-well qPCR plates, sealed, and gDNA was digested on thermal cycler at 75° C. for 5 minutes. RNA lysate was frozen at −80° C.
Human Procollagen Iα1 was measured from the supernatant by ELISA (Human Pro-Collagen I alpha 1 DuoSet ELISA, R&D Systems) at 1/100 dilution in 1× Reagent Diluent (Reagent Ancillary Kit 2, R&D Systems).

[3] = system: LX-2 hepatic stellate cells; experiment: TGFβ1-induced fibrogenic gene expression (Col1a1, Acta2, Timp2) in LX-2 cells, qRT-PCR; conditions: TGFβ1 5 ng/mL, combinations at 40× HMDB concentrations, N-acetylcysteine 10 mM

Q: `N=C(N)NCCC[C@H](N)C(=O)O` [Arginine, L-Arginine] was tested. Which “MCP-1 chemokine secretion, in words” value [1] did it give?
A: no significant impact

Q: And the “Procollagen Iα1 Secretion (Fold Change of 1X), Mean” value ([2]; first donor, Conc. 109 μM (baseline))?
A: 1.0000 fold

Q: And the “procollagen Iα1 secretion, in words” value [2]?
A: significantly increased procollagen Iα1 secretion in two of three donors

Q: And the “Procollagen Iα1 Secretion (Fold Change of 1X), Mean” value ([2]; second donor, Conc. 109 μM (baseline))?
A: 1.0000 fold

Q: And the “Procollagen Iα1 Secretion (Fold Change of 1X), Mean” value ([2]; third donor, Conc. 109 μM (baseline))?
A: 1.0000 fold

Q: What does the source list for `NC(=O)CC[C@H](N)C(=O)O` [Glutamine, L-Glutamine]?
A: Fold Change MCP1 Secretion Normalized Per Cell, Mean ([1]; donor 3, 749 μM): 0.7048; Fold Change MCP1 Secretion Normalized Per Cell, Mean ([1]; donor 3, 3747 μM): 0.6036; Fold Change MCP1 Secretion Normalized Per Cell, Mean ([1]; donor 3, 11242 μM): 0.6106; Fold Change MCP1 Secretion Normalized Per Cell, Mean ([1]; donor 3, 22484 μM): 0.6212; Fold Change MCP1 Secretion Normalized Per Cell, Mean ([1]; donor 4, 749 μM): 0.7782; Fold Change MCP1 Secretion Normalized Per Cell, Mean ([1]; donor 4, 3747 μM): 0.6639; Fold Change MCP1 Secretion Normalized Per Cell, Mean ([1]; donor 4, 11242 μM): 0.7129; Fold Change MCP1 Secretion Normalized Per Cell, Mean ([1]; donor 4, 22484 μM): 0.7039; MCP-1 chemokine secretion, in words [1]: reduced MCP1 secretion in both donors but was only statistically significant in one of two donors; Procollagen Iα1 Secretion (Fold Change of 1X), Mean ([2]; first donor, Conc. 562 μM (baseline)): 1.0000 fold; procollagen Iα1 secretion, in words [2]: did not have a significant impact; Procollagen Iα1 Secretion (Fold Change of 1X), Mean ([2]; second donor, Conc. 562 μM (baseline)): 1.0000 fold; Procollagen Iα1 Secretion (Fold Change of 1X), Mean ([2]; third donor, Conc. 562 μM (baseline)): 1.0000 fold

Q: Which results are given for `CC[C@H](C)[C@H](N)C(=O)O` [Isoleucine, L-Isoleucine]?
A: Fold Change MCP1 Secretion Normalized Per Cell, Mean ([1]; donor 3, 1328 μM): 1.5550; Fold Change MCP1 Secretion Normalized Per Cell, Mean ([1]; donor 3, 3320 μM): 1.2169; Fold Change MCP1 Secretion Normalized Per Cell, Mean ([1]; donor 3, 6639 μM): 1.2084; Fold Change MCP1 Secretion Normalized Per Cell, Mean ([1]; donor 4, 1328 μM): 1.3338; Fold Change MCP1 Secretion Normalized Per Cell, Mean ([1]; donor 4, 3320 μM): 0.8830; Fold Change MCP1 Secretion Normalized Per Cell, Mean ([1]; donor 4, 6639 μM): 0.9103; procollagen Iα1 secretion, in words [2]: significantly increased procollagen Iα1 secretion in two of three donors; Procollagen Iα1 Secretion (Fold Change of 1X), Mean ([2]; second donor, Conc. 66 μM (baseline)): 1.0000 fold; Procollagen Iα1 Secretion (Fold Change of 1X), Mean ([2]; third donor, Conc. 66 μM (baseline)): 1.0000 fold

Q: How did the “Fold Change MCP1 Secretion Normalized Per Cell, Mean” value ([1]; donor 3, 3054 μM) turn out when `CC(C)C[C@H](N)C(=O)O` [Leucine, L-Leucine] was run?
A: 1.1479

Q: What about the “Fold Change MCP1 Secretion Normalized Per Cell, Mean” value ([1]; donor 3, 7635 μM) of the same compound?
A: 1.3054

Q: What about the “Fold Change MCP1 Secretion Normalized Per Cell, Mean” value ([1]; donor 3, 15270 μM) of the same compound?
A: 1.1808

Q: What about the “Fold Change MCP1 Secretion Normalized Per Cell, Mean” value ([1]; donor 4, 3054 μM) of the same compound?
A: 1.5342

Q: What about the “Fold Change MCP1 Secretion Normalized Per Cell, Mean” value ([1]; donor 4, 7635 μM) of the same compound?
A: 1.7129

Q: What about the “Fold Change MCP1 Secretion Normalized Per Cell, Mean” value ([1]; donor 4, 15270 μM) of the same compound?
A: 1.5745

Q: What about the “MCP-1 chemokine secretion, in words” value [1] of the same compound?
A: no significant impact

Q: What about the “Procollagen Iα1 Secretion (Fold Change of 1X), Mean” value ([2]; first donor, Conc. 153 μM (baseline)) of the same compound?
A: 1.0000 fold

Q: And the “Procollagen Iα1 Secretion (Fold Change of 1X), Mean” value ([2]; second donor, Conc. 153 μM (baseline))?
A: 1.0000 fold

Q: What about the “Procollagen Iα1 Secretion (Fold Change of 1X), Mean” value ([2]; third donor, Conc. 153 μM (baseline)) of the same compound?
A: 1.0000 fold

Q: How did the “Col1a1 gene expression, in words” value [3] turn out when `CC(=O)N[C@@H](CS)C(=O)O` [N-acetylcysteine] was run?
A: reduced

Q: And the “Timp2 gene expression, in words” value [3]?
A: reduced

Q: And the “Fold Change MCP1 Secretion Normalized Per Cell, Mean” value ([1]; donor 4, 1000 μM)?
A: 0.6437

Q: What about the “Fold Change MCP1 Secretion Normalized Per Cell, Mean” value ([1]; donor 4, 2500 μM) of the same compound?
A: 0.8033

Q: And the “Fold Change MCP1 Secretion Normalized Per Cell, Mean” value ([1]; donor 4, 5000 μM)?
A: 0.6728

Q: What about the “Fold Change MCP1 Secretion Normalized Per Cell, Mean” value ([1]; donor 4, 10000 μM) of the same compound?
A: 0.5011

Q: And the “Fold Change MCP1 Secretion Normalized Per Cell, Mean” value ([1]; donor 4, Conc. 5 X)?
A: 0.6437

Q: And the “Fold Change MCP1 Secretion Normalized Per Cell, Mean” value ([1]; donor 4, Conc. 10 X)?
A: 0.8033

Q: And the “Fold Change MCP1 Secretion Normalized Per Cell, Mean” value ([1]; donor 4, Conc. 20 X)?
A: 0.6728

Q: What about the “Fold Change MCP1 Secretion Normalized Per Cell, Mean” value ([1]; donor 4, Conc. 40 X) of the same compound?
A: 0.5011

Q: What about the “MCP-1 chemokine secretion, in words” value [1] of the same compound?
A: significantly reduced MCP-1 secretion in both donors

Q: What about the “procollagen Iα1 secretion, in words” value [2] of the same compound?
A: significantly decrease procollagen Iα1 secretion in two of the three donors

Q: `CC(C)[C@H](N)C(=O)O` [Valine, L-Valine] was tested. Which “Fold Change MCP1 Secretion Normalized Per Cell, Mean” value ([1]; donor 3, 4684 μM) did it give?
A: 1.0630

Q: What about the “Fold Change MCP1 Secretion Normalized Per Cell, Mean” value ([1]; donor 3, 11710 μM) of the same compound?
A: 1.0204

Q: And the “Fold Change MCP1 Secretion Normalized Per Cell, Mean” value ([1]; donor 3, 23420 μM)?
A: 1.2651

Q: And the “Fold Change MCP1 Secretion Normalized Per Cell, Mean” value ([1]; donor 4, 4684 μM)?
A: 1.0942

Q: And the “Fold Change MCP1 Secretion Normalized Per Cell, Mean” value ([1]; donor 4, 11710 μM)?
A: 1.1544

Q: And the “Fold Change MCP1 Secretion Normalized Per Cell, Mean” value ([1]; donor 4, 23420 μM)?
A: 1.1525

Q: And the “MCP-1 chemokine secretion, in words” value [1]?
A: no significant impact

Q: And the “Procollagen Iα1 Secretion (Fold Change of 1X), Mean” value ([2]; first donor, Conc. 234 μM (baseline))?
A: 1.0000 fold

Q: And the “procollagen Iα1 secretion, in words” value [2]?
A: significantly increased procollagen Iα1 secretion in only one of two donors

Q: What about the “Procollagen Iα1 Secretion (Fold Change of 1X), Mean” value ([2]; second donor, Conc. 234 μM (baseline)) of the same compound?
A: 1.0000 fold

Q: And the “Procollagen Iα1 Secretion (Fold Change of 1X), Mean” value ([2]; third donor, Conc. 234 μM (baseline))?
A: 1.0000 fold
